Assay results as given in patent US20240294548A1, “TRICYCLIC SULTAMS AND SULFAMIDES AS ANTITUMOR AGENTS” (PELOTON THERAPEUTICS INC., priority 2021, published 2024).
Read-outs that look alike come from different tables or passages of the source.

Assays:
[1] = target: T1, DCAF15 RBM39 ternary complex (Homo sapiens, UniProt Q14498+Q66K64, DEL276-383); assay: DCAF15 RBM39 complex formation assay (FRET); type: biochemical
T1 construct: Amino acids 150 to 331 of RBM39 were cloned into pGEX4T3; GST (from the pGEX4T3 vector, own knowledge) followed by a TEV cleavage site (N); made in house; host or cells: Sf9 baculovirus (DDB1ΔB/DCAF15); E. coli (RBM39 R1R2)
T1 sequence (Q66K64 with tags, fused parts or gaps DEL276-383): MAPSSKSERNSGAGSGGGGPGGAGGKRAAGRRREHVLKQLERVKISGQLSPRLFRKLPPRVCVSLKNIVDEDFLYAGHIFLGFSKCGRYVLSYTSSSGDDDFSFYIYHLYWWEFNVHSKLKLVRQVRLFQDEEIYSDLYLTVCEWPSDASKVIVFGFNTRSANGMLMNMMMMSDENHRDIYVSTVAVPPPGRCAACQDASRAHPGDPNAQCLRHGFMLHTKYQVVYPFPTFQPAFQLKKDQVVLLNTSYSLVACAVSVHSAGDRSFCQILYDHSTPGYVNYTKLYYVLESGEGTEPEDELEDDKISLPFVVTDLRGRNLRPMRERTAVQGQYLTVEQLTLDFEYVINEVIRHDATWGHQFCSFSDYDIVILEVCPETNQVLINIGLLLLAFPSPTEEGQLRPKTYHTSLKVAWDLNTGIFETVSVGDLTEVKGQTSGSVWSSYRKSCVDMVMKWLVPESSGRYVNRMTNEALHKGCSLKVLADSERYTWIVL
T1 sequence (Q14498 150-331, stated change not applied): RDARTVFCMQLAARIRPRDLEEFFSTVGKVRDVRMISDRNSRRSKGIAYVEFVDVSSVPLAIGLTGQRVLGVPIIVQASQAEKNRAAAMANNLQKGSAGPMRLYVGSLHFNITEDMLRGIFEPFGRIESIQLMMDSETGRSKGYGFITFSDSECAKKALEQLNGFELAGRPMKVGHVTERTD
Text: (§1) Proteins used for the assays were as follows: Human DDA1 (UniProt:Q9BW61), DDB1 (UniPro: Q16531), and DCAF15 (UniProt: Q66K64) coding sequences were cloned into pFastBac1 vectors and were co-expressed in Sf9 cells using Bac-to-Bac baculovirus expression system (Thermo Fisher Scientific). The expression construct for DCAF15 includes a N-terminal His6-tag to facilitate the purification.
DCAF15 RBM39 Complex Formation Assay
LANCE Eu-W1024 Anti-6×His and SureLight Allophycocyanin-anti-FLAG antibodies were purchased from Perkin Elmer. Human DDB1DB and His-tagged DCAF15 were co-expressed in baculovirus/sf9 system. […] The His-tagged DCAF15 contains six histidine residues directly preceding the DCAF15 sequence without any linker. An RBM39 fragment containing RRM1 and RRM2 was expressed in E. coli.
A compound of the present disclosure in DMSO (2 μL) was transferred to a 384-well assay plate. Compound was added in 14 points, 3-fold serial dilution (1 μM to 0.6 pico molar) in DMSO. […] FRET assay buffer (25 mM HEPES, pH 7.5, 100 mM NaCl, […], 0.5 mM TCEP, 0.005% Tween-20, 0.2 nM Eu-W1024 Anti-6×His, 50 nM SureLight Allophycocyanin-anti-FLAG, 20 nM DDB1DB/DCAF15, 50 nM RBM39 R1R2) was added and the resulting solution was incubated overnight at 4° C. […] Low signal controls containing no compound and high signal controls containing 10 mM indisulam were measured for each plate.
EC50 values were calculated using Dotmatics template equation for 4-parameter fit.
Results are expressed as % formation using the following equation: […]

[2] = target: T2, DCAF15 (DDA1-DDB1ΔB-DCAF15Δpro) (Homo sapiens, UniProt Q66K64, DEL276-383); assay: DCAF15 displacement assay (displacement FRET, probe PT7795); type: binding
T2 construct: made in house; host or cells: Sf9 (Bac-to-Bac baculovirus)
Text: as §1
DCAF15 Displacement Assay (Displacement FRET KD)
Synthesis of the probe PT7795 is described in the article.
Binding of PT7795 to DDA1-DDB1AB-DCAF15Δpro was measured by the FRET signal between europium-labeled anti-His antibody (AD0205, Perkin Elmer) that is associated with His-tagged DCAF15 and ALX647 moiety in PT7795. […] After equilibrating for 2-3 hours at 4° C., the plate was removed from the incubator, briefly spun, then read on a Spark 10 (Tecan) at the excitation/emission wavelength of 340 nm/615 nm and 340 nm/665 nm.
Binding of compounds in this disclosure to DCAF15 was measured in a competition by the displacement of PT7795. The concentration of PT7795 was kept at 300 nM while the concentration of a compound was varied from 0.01 to 100 μM. The incubation time was increased to 18 hours for enhanced signal to noise level.
F=Fmin+(Fmax−Fmin)/(1+10^(logIC50−log[Compound])^n) (Equation 2)
The Kds can then be calculated from IC50s using Equation 3 (Cheng-Prusoff equation).

[3] = FRET ratio, 20 nM DDB1DB/DCAF15, 50 nM RBM39 R1R2, overnight at 4° C., read-out: DCAF15 RBM39 ternary complex EC50
[4] = displacement of PT7795 (300 nM), compound 0.01 to 100 μM, 18 hours incubation, read-out: DCAF15 displacement IC50

Row | SMILES | EC50 [1, 3] [µM] | IC50 [2, 4] [µM] | EC50 [1] [µM] | IC50 [2] [µM]
1 | COCCN1Cc2cc(F)c3c(C#N)c[nH]c3c2NS1(=O)=O [Compound 99, 6-fluoro-3-(2-methoxyethyl)-1,3,4,9-tetrahydro-[1,2,6] thiadiazino[4,3-g]indole-7-carbonitrile 2,2-dioxide] | 0.212 | 30.8 | – | –
2 | COCCN1Cc2cc(F)c3c(Cl)c[nH]c3c2NS1(=O)=O [Compound 79, 7-chloro-6-fluoro-3-(2-methoxyethyl)-1,3,4,9-tetrahydro-[1,2,6] thiadiazino[4,3-g]indole 2,2-dioxide] | 0.0089 | 19.5 | – | –
3 | O=S1(=O)Nc2c(cc(Cl)c3c(Cl)c[nH]c23)CN1CC1CCCNC1 (centres unmarked) [Compound 90, 6,7-dichloro-3-(piperidin-3-ylmethyl)-1,3,4,9-tetrahydro-[1,2,6] thiadiazino[4,3-g]indole 2,2-dioxide] | – | – | 0.001 | 0.274
4 | COCCN1Cc2ccc3c(C#N)c[nH]c3c2NS1(=O)=O [Compound 100, 3-(2-methoxyethyl)-1,3,4,9-tetrahydro-[1,2,6] thiadiazino[4,3-g]indole-7-carbonitrile 2,2-dioxide] | 0.168 | ≥ 100 | – | –
5 | O=c1[nH]ccc(CN2Cc3cc(Cl)c4c(Cl)c[nH]c4c3NS2(=O)=O)c1Cl [Compound 97, 3-chloro-4-((6,7-dichloro-2,2-dioxido-4,9-dihydro-[1,2,6]thiadiazino [4,3-g]indol-3(1H)-yl)methyl)pyridin-2(1H)-one] | 0.0017 | – | – | –
6 | O=S1(=O)Nc2c(ccc3c(Cl)c[nH]c23)CN1C1CCCOC1 (centres unmarked) [Compound 80, 7-chloro-3-(tetrahydro-2H-pyran-3-yl)-1,3,4,9-tetrahydro-[1,2,6]thiadiazino[4,3-g]indole 2,2-dioxide] | 0.0182 | 1.81 | – | –
7 | O=S1(=O)Nc2c(ccc3c(Cl)c[nH]c23)CN1c1cccnc1 [Compound 82, 7-chloro-3-(pyridin-3-yl)-1,3,4,9-tetrahydro-[1,2,6]thiadiazino[4,3-g]indole 2,2-dioxide] | 0.0011 | 3.32 | – | –
8 | Cn1c(CN2Cc3cc(Cl)c4c(Cl)c[nH]c4c3NS2(=O)=O)cccc1=O [Compound 62, 6-((6,7-dichloro-2,2-dioxido-4,9-dihydro-[1,2,6]thiadiazino[4,3-g]indol-3(1H)-yl)methyl)-1-methylpyridin-2(1H)-one] | 0.155 | 1.07 | – | –
9 | COCCN1Cc2ccc3c(Cl)c[nH]c3c2NS1(=O)=O [Compound 81, 7-chloro-3-(2-methoxyethyl)-1,3,4,9-tetrahydro-[1,2,6] thiadiazino[4,3-g]indole 2,2-dioxide] | 0.0177 | 32 | – | –
10 | O=c1cc(CN2Cc3cc(Cl)c4c(Cl)c[nH]c4c3NS2(=O)=O)c(Cl)c[nH]1 [Compound 98, 5-chloro-4-((6,7-dichloro-2,2-dioxido-4,9-dihydro-[1,2,6]thiadiazino [4,3-g]indol-3(1H)-yl)methyl)pyridin-2(1H)-one] | 0.0023 | 0.181 | – | –

Now from value to compound, other results behind:

Row | EC50 [1, 3] [µM] | IC50 [2, 4] [µM] | SMILES | EC50 [1] [µM] | IC50 [2] [µM]
11 | 0.0029 | 0.362 | O=S1(=O)Nc2c(cc(Cl)c3c(Cl)c[nH]c23)CN1CCC1COC1 [Compound 94, 6,7-dichloro-3-(2-(oxetan-3-yl)ethyl)-1,3,4,9-tetrahydro-[1,2,6] thiadiazino[4,3-g]indole 2,2-dioxide] | – | –
12 | 0.0004 | 0.0518 | CC(=O)N1CCCC(CN2Cc3cc(Cl)c4c(Cl)c[nH]c4c3NS2(=O)=O)C1 (centres unmarked) [Compound 91, 1-(3-((6,7-dichloro-2,2-dioxido-4,9-dihydro-[1,2,6]thiadiazino[4,3-g]indol-3(1H)-yl)methyl)piperidin-1-yl) ethan-1-one] | – | –
13 | 0.0012 | 0.0949 | O=S1(=O)Nc2c(cc(Cl)c3c(Cl)c[nH]c23)CN1CC1CCCOC1 (centres unmarked) [Compound 95, 6,7-dichloro-3-((tetrahydro-2H-pyran-3-yl)methyl)-1,3,4,9-tetrahydro-[1,2,6] thiadiazino[4,3-g]indole 2,2-dioxide] | – | –
14 | 0.0016 | 0.231 | O=S1(=O)Nc2c(cc(Cl)c3c(Cl)c[nH]c23)CN1CC1CC(O)C1 (centres unmarked) [Compound 88, 6,7-dichloro-3-((3-hydroxycyclobutyl)methyl)-1,3,4,9-tetrahydro-[1,2,6]thiadiazino[4,3-g]indole 2,2-dioxide] | – | –
15 | 0.0016 | 0.773 | C=CCN1Cc2cc(Cl)c3c(Cl)c[nH]c3c2NS1(=O)=O [Compound 93, 3-allyl-6,7-dichloro-1,3,4,9-tetrahydro-[1,2,6] thiadiazino[4,3-g]indole 2,2-dioxide] | – | –
16 | 0.123 | 1.24 | Cn1ccc(CN2Cc3cc(Cl)c4c(Cl)c[nH]c4c3NS2(=O)=O)cc1=O [Compound 61, 4-((6,7-dichloro-2,2-dioxido-4,9-dihydro-[1,2,6]thiadiazino[4,3-g]indol-3(1H)-yl)methyl)-1-methylpyridin-2(1H)-one] | – | –
17 | 0.0012 | 0.215 | O=S1(=O)Nc2c(cc(Cl)c3c(Cl)c[nH]c23)CN1CC1CCCCO1 (centres unmarked) [Compound 96, 6,7-dichloro-3-((tetrahydro-2H-pyran-2-yl)methyl)-1,3,4,9-tetrahydro-[1,2,6] thiadiazino[4,3-g]indole 2,2-dioxide] | – | –
18 | 0.0008 | 0.574 | O=S1(=O)Nc2c(cc(Cl)c3c(Cl)c[nH]c23)CN1CC1CCCO1 (centres unmarked) [Compound 89, 6,7-dichloro-3-((tetrahydrofuran-2-yl)methyl)-1,3,4,9-tetrahydro-[1,2,6] thiadiazino[4,3-g]indole 2,2-dioxide] | – | –
19 | 0.0007 | 1.17 | Nc1ccc(CN2Cc3cc(Cl)c4c(Cl)c[nH]c4c3NS2(=O)=O)cc1 [Compound 78, 3-(4-aminobenzyl)-6,7-dichloro-1,3,4,9-tetrahydro-[1,2,6]thiadiazino[4,3-g]indole 2,2-dioxide] | – | –
20 | 0.0007 | 0.965 | O=C(CN1Cc2cc(Cl)c3c(Cl)c[nH]c3c2NS1(=O)=O)N1CCOCC1 [Compound 92, 2-(6,7-dichloro-2,2-dioxido-4,9-dihydro-[1,2,6]thiadiazino[4,3-g]indol-3(1H)-yl)-1-morpholinoethan-1-one] | – | –
21 | 0.0008 | 0.68 | CS(=O)(=O)CCCN1Cc2cc(Cl)c3c(Cl)c[nH]c3c2NS1(=O)=O [Compound 77, 6,7-dichloro-3-(3-(methylsulfonyl)propyl)-1,3,4,9-tetrahydro-[1,2,6] thiadiazino[4,3-g]indole 2,2-dioxide] | – | –
